The source of these data is patent US7018994B2, “17α-ALKYL-17β-OXY-ESTRATRIENES AND INTERMEDIATE PRODUCTS FOR THEIR PRODUCTION, USE OF THE 17α-ALKYL-17β-OXY-ESTRATRIENES FOR THE PRODUCTION OF PHARMACEUTICAL AGENTS AS WELL AS PHARMACEUTICAL PREPARATIONS” (Schering AG, priority 2001, dated 2006).

One data set relates to uterus growth. In words: Uterus growth test on infant rats (test on antiestrogenic action, antiuterotropic action). In kind it is in vivo, rat. The settings on record: infant female rats, inhibition relative to EB control; for Antiuterotropic Action % Inhib. p.o.: 0.3 (mg/kg of body weight) p.o. once daily for three days with 0.5 μg estradiolbenzoate s.c.
The target of another data set is T1, 17β-HSD2 (Homo sapiens, UniProt P37059).
T1 construct: Microsome solution: intestinal microsomes (In Vitro Technologies); protein content: 24 mg/ml; tissue In Vitro Technologies; host or cells: intestinal microsomes
T1 sequence (P37059 1-387): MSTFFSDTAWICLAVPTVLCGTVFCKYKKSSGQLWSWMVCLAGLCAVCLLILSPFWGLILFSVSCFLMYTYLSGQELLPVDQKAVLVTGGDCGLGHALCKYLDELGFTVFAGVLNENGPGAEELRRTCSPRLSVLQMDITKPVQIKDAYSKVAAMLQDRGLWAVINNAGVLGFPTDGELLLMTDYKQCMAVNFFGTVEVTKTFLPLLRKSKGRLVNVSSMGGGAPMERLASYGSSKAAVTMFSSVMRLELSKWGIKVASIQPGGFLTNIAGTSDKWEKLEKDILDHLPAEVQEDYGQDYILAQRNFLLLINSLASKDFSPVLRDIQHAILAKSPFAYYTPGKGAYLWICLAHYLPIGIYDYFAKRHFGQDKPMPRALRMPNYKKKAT
Description: Determination of metabolic stability: in-vitro 17β-HSD test, intestinal microsomes. In kind it is in vitro ADME. The settings on record: LC/MS/MS; for metabolic stability in intestinal microsomes: 37° C., 0-60 minutes, 0.3 μmol in the test batch. The source says:
Determination of metabolic stability: in-vitro 17β-HSD test
17β-HSD2 mediates the intestinal enzymatic dehydrogenization of an OH group in 17-position of the sterane skeleton into a ketone group.
For this test, the following materials are used:
Na-Phosphate buffer: 100 mmol of Na2HPO4×2H2O and 100 mmol of NaH2PO4×H2O
Test substance solution of
11β-Fluoro-7α-{5-[methyl(8,8,9,9,9-pentafluorononyl)amino]pentyl}-17α-methylestra-1,3,5(10)-triene-3,17β-diol (compound 1, as a representative of the compounds of general formula I) and
11β-Fluoro-7α-{5-[methyl(8,8,9,9,9-pentafluorononyl)amino]pentyl-estra-1,3,5(10)-triene-3,17β-diol (compound 2): […] in MeOH (0.3 μmol in the test batch).
Cofactor solution: 2 ml of glucose-6-phosphate (160 mmol)/MgCl2 (80 mmol) mixture is added to 400 μl of a glucose-6-phosphate-dehydrogenase solution, and then 15.6 mg of NADP and 13.4 mg of NAD are added.
Microsome solution: intestinal microsomes (In Vitro Technologies; protein content: 24 mg/ml; CYP450 content: 0.058 nmol/mg of protein)
In the water bath, it is thawed at 37° C. (˜60 seconds) and diluted with Na-phosphate buffer to a concentration of 5 mg/ml of protein.
In each case, 170 μl/well of the buffer and 5 μl/well of the test substance solutions are introduced into the corresponding wells, whereby double values are applied for each measuring time (0, 10, 20, 30, 45 and 60 minutes).
In each case, 250 μl of ice-cold MeOH is added to the 0-minute values. Then, 25 μl of microsome solution and 50 μl of cofactor solution are added immediately to all wells. The samples of the 0-minute values are stored without incubation at ˜−20° C. for about 24 hours. The other samples are incubated in each case for 10, 20, 30, 45 and 60 minutes at 37° C., and the dehydrogenation reaction is stopped after these times by the addition of 250 μl of ice-cold MeOH in each case. The samples are stored until measurement per LC/MS/MS at ˜−20° C., for about 24 hours and centrifuged at 3000 rpm before analysis, whereby the supernatant is measured.
(§1) The concentrations of the test substances measured per LC/MS/MS and the resulting 17 ketone product are reproduced in FIGS. 2a-2f.

Data set [1] in a line: Metabolic stability in liver microsomes. The format is in vitro ADME. The conditions noted are these: LC/MS/MS.
From the text: as §1
(Liver microsomes are a subcellular fraction often used to study metabolism.)

Turning to “11β-Fluoro-7α-{5-[methyl(7,7,8,8,9,9,9-heptafluorononyl)amino]pentyl}-17α-methylestra-1,3,5(10)-triene-3,17β-diol [No. 8]”, in the data set on uterus growth, the “Antiuterotropic Action % Inhib. p.o.” value was 94%.

Consider `CN(CCCCCCCC(F)(F)C(F)(F)F)CCCCC[C@@H]1Cc2cc(O)ccc2[C@@H]2[C@@H]1[C@@H]1CCC(=O)[C@@]1(C)C[C@@H]2F` [compound 3, 11β-fluoro-7α-{5-[methyl(8,8,9,9,9-pentafluorononyl)amino]pentyl}-estra-1,3,5(10)-trien-3-ol-17-one], for which the “Antiuterotropic Action % Inhib. p.o.” value in the data set with uterus growth turned out to be 76%. For `CN(CCCCCCCC(F)(F)C(F)(F)F)CCCCC[C@@H]1Cc2cc(O)ccc2[C@@H]2[C@@H]1[C@@H]1CC[C@H](O)[C@@]1(C)C[C@@H]2F` [compound 2, reference compound], on 17β-HSD2, the “metabolic stability in intestinal microsomes” value is reported as “degraded” and the “formation of the 17-ketone product of the 17βHSD-reaction” value (shortened to “formation”) was “the corresponding 17-ketone is produced”.

Consider “11β-Fluoro-7α-{5-[methyl(7,7,8,8,9,9,10,10,10-nonafluorodecyl)amino]pentyl}-17α-methylestra-1,3,5 (10)-triene-3,17β-diol [No. 7]”, for which the “Antiuterotropic Action % Inhib. s.c.” value in the data set on uterus growth (0.03 (mg/kg of body weight) s.c., once daily for three days with 0.5 μg estradiolbenzoate s.c.) came out at 59%. For “11β-Fluoro-7α-{5-[methyl(8,8,9,9,9-pentafluorononyl)amino]pentyl}-17α-methylestra-1,3,5(10)-triene-3,17β-diol [compound 1]”, at 17β-HSD2, the “metabolic stability in intestinal microsomes” value was “metabolically stable” and the “formation” value is recorded as “does not occur in any of the tissues”. For the same compound, in data set [1], the “formation” value is given as “does not occur in any of the tissues” and the “metabolic stability in liver microsomes” value is given as “not in liver microsomes”.
